Assay results from patent US20220017478A1, “2-BENZOYLAMINOBENZAMIDE DERIVATIVES AS BCL-3 INHIBITORS” (University College Cardiff Consultants Limited, priority 2013, published 2022).

Columns and labels:
NF-κB activity [1] = test: NF-κB luciferase reporter assay in HEK-293 cells overexpressing Bcl-3; type: cell-based; conditions: Homo sapiens, HEK293
Protocol: (§1) For NF-κB luciferase assays, cells were seeded into clear bottom black 96-well plates (Corning Inc., Lowell, US) in antibiotic free culture media in appropriate density. After 24 hrs, cells were transfected with 10 ng of 3×κB luciferase plasmid and 10 ng of pcDNA3.1-Lacl plasmid per well. Empty pcDNA3.1 plasmid was also included to normalize the total weight of DNA transfected to 100 ng. For positive and negative controls respectively, 10 ng of pGL3control or pGL3basic were transfected in place of 3×KB luciferase plasmid. Transfection was carried out using Lipofectamine LTX reagents (Invitrogen, Paisley, UK).
(§2) After 48 hrs post-transfection with luciferase reporter plasmid, the media was aspirated and cells were lyzed using 50 μl/well of Glo-lysis buffer (Promega, Southampton, UK). The plate was left on a rocker for 20 min to facilitate complete cell lysis. […] Subsequently, 30 μl/well of Bright-Glo luciferase substrate (Promega, Southampton, UK) was added to the original plate and asses immediately for luminescence activity. The luminescence produced from either reaction was read using a Flurostar Optima plate reader (BMG tabtech, Bucks, UK).
(§3) The effect of Compound 1a on NF-κB activity was determined by NF-κB luciferase assay in MDA-MB-231 and HEK-293 cells overexpressing Bcl-3 and HEK-293 cells overexpressing p52. […]

NF-κB activity [2] = test: NF-κB luciferase reporter assay in HEK-293 p52 overexpressing cells; type: cell-based; conditions: Homo sapiens, HEK293
Protocol: as §1, §2, §3

- IC50 (NF-κB activity [1]): 160 nM
- IC50 (NF-κB activity [2]): 211 nM
Structure (SMILES): O=C(Nc1ccccc1C(=O)NCCN1CCOCC1)c1ccccc1F [Compound 1a, 2-[(2-fluorobenzoyl)amino]-N-(2-morpholin-4-ylethyl)benzamide]
